What is called IC50 is the midpoint of a concentration-inhibition curve. A high value points to weaker potency in that assay. Usually inhibition stands for the change of the read-out against control, counted positive when it falls.

Structures are written as SMILES.

One test addresses T1, human mPGES-1 (Homo sapiens, UniProt O14684).
T1 construct: made in house; host or cells: FreeStyle CHO-S cells (Chinese hamster ovary), transient transfection with pcDNA3.1(+)/human mPGES-1; microsome fraction used
T1 sequence (O14684 1-152): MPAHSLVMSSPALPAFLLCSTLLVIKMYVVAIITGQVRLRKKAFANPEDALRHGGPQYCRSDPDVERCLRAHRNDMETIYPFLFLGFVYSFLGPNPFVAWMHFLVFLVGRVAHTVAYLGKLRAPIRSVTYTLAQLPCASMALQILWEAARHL
Briefly: Evaluation of human mPGES-1 enzyme inhibitory activity (PGE2 measured by HTRF, microsome fraction of CHO-S cells expressing human mPGES-1). Type of test: biochemical. Particulars: IC50 value; microsome fraction of CHO-S cells expressing human mPGES-1, PGE2 by HTRF. The method in brief:
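Enzyme source: microsomes from CHO-S cells transfected with human mPGES-1 and cultured 48 hr, diluted to 5 μg/mL protein in reduced GSH (12.5 mmol/L KPB solution). Test articles were in 0.1 mol/L potassium phosphate pH 7.4, final DMSO 2% (v/v). PGE2 formed was quantified by HTRF.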
(Time-resolved FRET reads energy transfer from a long-lived donor to a nearby acceptor.)
In the case of `Cc1c(CNS(=O)(=O)C(C)(C)C)ccc(Cl)c1-c1nc(O)nc(-c2ccc(C(F)(F)F)cc2)n1` [Example 3-10], the IC50 worked out at 16 nM. Regarding `Cc1cccc(C)c1-c1nc(O)nc(-c2ccc(CC(C)C)cc2)n1` [Example 2-39], the concentration for half-maximal inhibition (IC50) came to 450 nM. With `CCC(=O)NCc1ccc(Cl)c(-c2nc(O)nc(-c3ccc(C(F)(F)F)cc3)n2)c1` [Example 1-27], the midpoint of inhibition, the IC50, lay at 1 nM. The same measure, in the same setting: the value for `CC(C)COc1ccc(-c2nc(O)nc(-c3c(Cl)cccc3OCc3ccccn3)n2)cc1` [Example 2-66] was 16 nM. As to `CC(C)(C)COc1ccc(-c2nc(O)nc(-c3cc(CCO)ccc3Cl)n2)cc1` [Example 1-198], the IC50 is 14 nM. Still for that read-out and setting: with `CC(C)(C)COc1ccc(-c2nc(O)nc(-c3cc(CNC(=O)C(C)(C)C(F)(F)F)ccc3C(F)(F)F)n2)cc1` [Example 1-208] the figure was 16 nM.

In turn, `CN(Cc1ccc(Cl)c(-c2nc(O)nc(-c3ccccc3)n2)c1)C(=O)C1(C)Cc2ccccc2C1` [Example 1-264] came in with an IC50 of 163 nM. Take `Cc1cccc(COc2cccc(C(F)(F)F)c2-c2nc(O)nc(-c3ccc(C#Cc4cccc(Cl)c4)cc3)n2)n1` [Example 2-123]: the IC50 is 12 nM.

The compound `CCCc1cccc(-c2nc(O)nc(-c3cc(CNC(=O)C(C)(C)C(F)(F)F)c(C)cc3Cl)n2)c1` [Example 3-16] showed a half-inhibitory concentration (IC50) of 2.1 nM.

The compound `CC(C)c1cc(-c2nc(O)nc(-c3cc(CNC(=O)C(C)(C)C(F)(F)F)ccc3Cl)n2)ccc1F` [Example 1-117] registered an IC50 of 1.6 nM. The compound `Oc1nc(-c2ccc(C(F)(F)F)cc2)nc(-c2c(Cl)cccc2OCc2ccccn2)n1` [Example 2-45] showed an IC50 of 12 nM. `CCOc1ccc(-c2nc(O)nc(-c3cc(CNC(=O)C(C)(C)C(F)(F)F)ccc3Cl)n2)c(C)c1` [Example 1-161]: inhibition was half-maximal at 1.3 nM (IC50).

The compound `CCOc1cccc(Cl)c1-c1nc(O)nc(-c2ccc(C(F)(F)F)cc2)n1` [Example 2-17] came in with a concentration for half-maximal inhibition (IC50) of 39 nM.

Regarding `CC(=O)c1ccc(Cl)c(-c2nc(O)nc(-c3ccc(C(F)(F)F)cc3)n2)c1` [Example 1-13], the IC50 stood at 397 nM. Still for that read-out and setting: with `CC(C)(C)C(=O)NCc1ccc(Cl)c(-c2nc(O)nc(-c3cccc(F)c3)n2)c1` [Example 1-76] the figure was 1.7 nM; with `OCc1ccc(Cl)c(-c2nc(O)nc(-c3ccc(C(F)(F)F)cc3)n2)c1` [Example 1-12], 15 nM. Compound `COc1c(CO)ccc(Cl)c1-c1nc(O)nc(-c2ccc(C(F)(F)F)cc2)n1` [Example 3-2] yielded a concentration for half-maximal inhibition (IC50) of 148 nM.

Compound `Cc1cccc(COc2cccc(C(F)(F)F)c2-c2nc(O)nc(-c3ccc(C#Cc4ccc(OC(F)(F)F)cc4)cc3)n2)n1` [Example 2-130] yielded an IC50 of 35 nM.

`Cc1cc(-c2nc(O)nc(-c3cc(CNC(=O)C4(C(F)(F)F)CC4)ccc3Cl)n2)ccc1F` [Example 1-127] gave an IC50 of 0.8 nM.

For the compound `O=C(NCc1ccc(Cl)c(-c2nc(O)nc(-c3ccccc3)n2)c1)C1CCCC1` [Example 1-67], it took 1 nM to reach half-maximal inhibition (IC50). Still for that read-out and setting: with `Cc1cccc(C)c1-c1nc(O)nc(-c2cccc(F)c2)n1` [Example 2-15] the figure was 16400 nM; with `O=C(NCc1ccc(Cl)c(-c2nc(O)nc(-c3ccccc3)n2)c1)C1(CO)CCCCC1` [Example 1-247], 11 nM; with `Cc1ccc(-c2nc(O)nc(-c3cc(CNC(=O)C(C)(C)C)ccc3Cl)n2)cc1` [Example 1-63], 0.5 nM.

In turn, `CCc1ccc(C)c(-c2nc(O)nc(-c3ccc(C(F)(F)F)cc3)n2)c1` [Example 1-14] had an IC50 of 1410 nM. Same read-out and setting: with `CC(C)(C)c1cccc(-c2nc(O)nc(-c3cc(CNC(=O)c4ccccc4)ccc3Cl)n2)c1` [Example 1-94] the figure was 4.6 nM. `COc1c(C)ccc(Cl)c1-c1nc(O)nc(-c2ccc(C(F)(F)F)cc2)n1` [Example 3-3] displayed an IC50 of 141 nM. On to `Cc1cc(-c2nc(O)nc(-c3cc(CNC(=O)C(C)(C)C(F)(F)F)ccc3Cl)n2)cc(C)c1OCC1CC1` [Example 1-176], for which the IC50 worked out at 1.8 nM.

For `CCCCc1ccc(Cl)c(-c2nc(O)nc(-c3ccc(OCC(C)(C)C)cc3)n2)c1` [Example 1-205], the IC50 stood at 367 nM. The compound `O=C(NCc1ccc(Cl)c(-c2nc(O)nc(-c3cccc(C(F)(F)F)c3)n2)c1)C1(C(F)(F)F)CCCC1` [Example 1-79] returned a half-maximal inhibitory concentration (IC50) of 1.2 nM.

Regarding `COc1cccc(C#Cc2ccc(-c3nc(O)nc(-c4c(OCc5cccc(C)n5)cccc4C(F)(F)F)n3)cc2)c1` [Example 2-125], the IC50 amounted to 4.3 nM.

Turning to `CC1(C(=O)NCc2ccc(Cl)c(-c3nc(O)nc(-c4ccccc4)n3)c2)Cc2ccccc2C1` [Example 1-262], the IC50 worked out at 7 nM. The compound `Cc1cccc(C)c1-c1nc(O)nc(-c2ccc(O[C@H](C)c3ccccc3)cc2)n1` [Example 2-44] yielded a concentration for half-maximal inhibition (IC50) of 563 nM.

On to `COc1ccc(F)c(Cl)c1-c1nc(O)nc(-c2ccc(OCc3ccccc3)cc2)n1` [Example 3-12], for which the IC50 came out at 28 nM. The same measure, in the same setting: the value for `Cc1cccc(C)c1-c1nc(O)nc(-c2ccc(OCC(C)C)cc2)n1` [Example 2-42] was 239 nM; that for `CCC(CC)Oc1ccc(-c2nc(O)nc(-c3c(C)cccc3C)n2)cc1` [Example 2-73] was 402 nM.

Take `Cc1cc(-c2nc(O)nc(-c3cc(CNC(=O)C(C)(C)C(F)(F)F)ccc3Cl)n2)ccc1F` [Example 1-90]: the IC50 was found to be 0.4 nM.

Compound `CCC(=O)N(C)Cc1ccc(Cl)c(-c2nc(O)nc(-c3ccccc3)n2)c1` [Example 1-224] registered a concentration for half-maximal inhibition (IC50) of 5800 nM. Compound `CC(=O)OCc1ccc(Cl)c(-c2nc(O)nc(-c3ccc(C(F)(F)F)cc3)n2)c1` [Example 1-25] had an IC50 of 108 nM.

Regarding `CC(C)COCc1ccc(Cl)c(-c2nc(O)nc(-c3ccc(OCC(C)(C)C)cc3)n2)c1` [Example 1-204], the IC50 amounted to 34 nM. For the compound `Cc1cccc(C)c1-c1nc(O)nc(-c2cccc(OCc3ccccc3)c2)n1` [Example 2-29], 503 nM corresponded to half-maximal inhibition (IC50). On the same count and under the same terms, the value for `Cc1cccc(C)c1-c1nc(O)nc(-c2ccc(C(F)(F)F)cc2)n1` [Example 2-1] was 283 nM. The compound `O=C(O)c1ccc(Cl)c(-c2nc(O)nc(-c3ccc(C(F)(F)F)cc3)n2)c1` [Example 1-8] returned an IC50 of 27000 nM. On the same count and under the same terms, with `Oc1nc(-c2ccc(OCC3CCC3)cc2)nc(-c2c(Cl)cccc2OCc2ccccn2)n1` [Example 2-75] the figure was 3.7 nM; with `CCc1cccc(-c2nc(O)nc(-c3cc(CNC(=O)[C@@](C)(OC)C(F)(F)F)ccc3Cl)n2)c1` [Example 1-121], 1.2 nM; with `COc1cccc(Cl)c1-c1nc(O)nc(-c2ccc(OCc3ccccc3)cc2)n1` [Example 2-35], 17 nM. For `Oc1nc(-c2ccc(C#CC3CCCC3)cc2)nc(-c2c(Cl)cccc2OCc2ccccn2)n1` [Example 2-91], the IC50 stood at 1.6 nM. `Cc1cc(Cl)c(-c2nc(O)nc(-c3ccc(OCC4CC4)cc3)n2)cc1C(N)=O` [Example 3-20]: it took 1100 nM to reach half-maximal inhibition (IC50). In the case of `CC1(C(=O)NCc2ccc(Cl)c(-c3nc(O)nc(-c4ccccc4)n3)c2)CCC1` [Example 1-72], the IC50 was 1.3 nM.

With `CCCCOc1cccc(Cl)c1-c1nc(O)nc(-c2ccc(C(F)(F)F)cc2)n1` [Example 2-31], half-maximal inhibition (IC50) required 31 nM. The same measure, in the same setting: with `Cc1cccc(C)c1-c1nc(O)nc(-c2ccc(C(F)(F)F)cc2F)n1` [Example 2-9] the figure was 6400 nM.

The test is the same for the next values; noted with them: at 30 μM test article.
With `CCC(=O)N(CC)Cc1ccc(Cl)c(-c2nc(O)nc(-c3ccccc3)n2)c1` [Example 1-261], at 30 µM the inhibition was 44%.

For the origin of these results see US12398111B2, “Triazine compounds and pharmaceutical use thereof” (Japan Tobacco Inc., priority 2014, dated 2025).
